Literature values as cited in US20130071904A1, “ACETATE-RESISTANT YEAST STRAIN FOR THE PRODUCTION OF A FERMENTATION PRODUCT” (priority 2010, published 2013).

Test system: Saccharomyces cells
Details: Pons et al. 1984

CC(=O)O [Acetate]
effect on growth of Saccharomyces cells: inhibits the growth
